# Where two headings read alike, the source gives them in different places.
# Legend:
# Type in all cases: biochemical
# Neutral α-Mannosidase = target: T1, Neutral α-Mannosidase (Homo sapiens, UniProt Q9NTJ4); assay: inhibition of human liver neutral α-mannosidase; settings: for inhibition at 1000 µM: 1 mM inhibitor, read-out: % Inhibition of Glycosidase Activity, α-Mannosidase Neutral
# T1 construct: Human liver glycosidases were assayed; from tissue; host or cells: human liver
# T1 sequence (Q9NTJ4 1-1040): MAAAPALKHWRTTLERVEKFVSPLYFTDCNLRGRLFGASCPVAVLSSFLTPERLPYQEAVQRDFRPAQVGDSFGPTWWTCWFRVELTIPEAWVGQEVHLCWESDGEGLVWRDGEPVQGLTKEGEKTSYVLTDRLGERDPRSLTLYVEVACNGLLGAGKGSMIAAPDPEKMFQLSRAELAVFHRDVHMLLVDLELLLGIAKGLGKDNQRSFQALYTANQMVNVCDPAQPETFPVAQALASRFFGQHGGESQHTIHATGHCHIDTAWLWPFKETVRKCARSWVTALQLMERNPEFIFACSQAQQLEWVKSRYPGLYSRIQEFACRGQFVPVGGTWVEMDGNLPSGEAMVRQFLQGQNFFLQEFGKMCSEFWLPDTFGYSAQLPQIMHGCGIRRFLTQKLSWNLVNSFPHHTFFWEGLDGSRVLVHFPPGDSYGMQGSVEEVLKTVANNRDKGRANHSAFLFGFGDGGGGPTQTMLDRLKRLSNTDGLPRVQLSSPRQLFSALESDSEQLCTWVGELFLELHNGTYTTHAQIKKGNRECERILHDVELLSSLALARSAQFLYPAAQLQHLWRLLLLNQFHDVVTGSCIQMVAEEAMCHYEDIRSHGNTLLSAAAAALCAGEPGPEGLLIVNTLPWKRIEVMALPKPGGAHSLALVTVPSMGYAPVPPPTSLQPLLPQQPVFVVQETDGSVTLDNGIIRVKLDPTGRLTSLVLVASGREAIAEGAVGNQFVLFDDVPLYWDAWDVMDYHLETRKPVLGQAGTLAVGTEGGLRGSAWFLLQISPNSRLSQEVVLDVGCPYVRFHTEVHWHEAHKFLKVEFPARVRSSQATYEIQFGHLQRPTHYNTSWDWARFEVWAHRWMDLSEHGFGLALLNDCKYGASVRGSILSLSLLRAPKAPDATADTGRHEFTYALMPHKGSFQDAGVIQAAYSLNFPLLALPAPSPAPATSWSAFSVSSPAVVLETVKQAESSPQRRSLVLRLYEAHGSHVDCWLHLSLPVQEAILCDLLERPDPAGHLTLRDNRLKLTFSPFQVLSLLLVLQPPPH
# Method: (§1) Human liver glycosidases were assayed in the absence and presence [1 mM] of each of the potential inhibitors, using the appropriate buffered 4-methylumbelliferyl glycosides as substrates, as previously described.^17 See Table I, below.
# β-Glucosidase = assay: inhibition of human liver β-glucosidase; settings: 1 mM inhibitor
# Method: as §1
# β-Glucuronidase = target: T2, β-Glucuronidase (Homo sapiens, UniProt P08236); assay: inhibition of human liver β-glucuronidase; settings: read-out: % Inhibition of Glycosidase Activity, β-Glucuronidase
# T2 construct: Human liver glycosidases were assayed; from tissue; host or cells: human liver
# T2 sequence (P08236 23-633 limits assumed): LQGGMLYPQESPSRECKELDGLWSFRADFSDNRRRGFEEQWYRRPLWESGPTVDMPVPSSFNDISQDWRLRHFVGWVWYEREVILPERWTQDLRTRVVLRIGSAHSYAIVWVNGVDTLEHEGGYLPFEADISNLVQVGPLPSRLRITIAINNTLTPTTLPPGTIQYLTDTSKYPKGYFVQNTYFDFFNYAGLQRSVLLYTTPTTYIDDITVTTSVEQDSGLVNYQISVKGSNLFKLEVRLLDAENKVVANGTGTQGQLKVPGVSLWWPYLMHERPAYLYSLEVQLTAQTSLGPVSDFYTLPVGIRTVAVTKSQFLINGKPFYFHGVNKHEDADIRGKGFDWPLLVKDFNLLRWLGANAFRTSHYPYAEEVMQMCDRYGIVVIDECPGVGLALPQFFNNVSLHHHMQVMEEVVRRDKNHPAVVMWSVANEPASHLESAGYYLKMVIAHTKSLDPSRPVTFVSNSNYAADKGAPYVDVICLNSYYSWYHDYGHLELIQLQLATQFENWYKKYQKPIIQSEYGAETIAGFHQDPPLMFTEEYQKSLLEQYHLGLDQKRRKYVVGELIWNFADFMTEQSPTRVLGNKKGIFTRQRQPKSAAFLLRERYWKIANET
# Method: as §1
# β-Xylosidase = target: T3, β-Xylosidase (Homo sapiens, UniProt Q9H227); assay: inhibition of human liver β-xylosidase; settings: 1 mM inhibitor; read-out: % Inhibition of Glycosidase Activity, β-Xylosidase
# T3 construct: Human liver glycosidases were assayed; from tissue; host or cells: human liver
# T3 sequence (Q9H227 1-469): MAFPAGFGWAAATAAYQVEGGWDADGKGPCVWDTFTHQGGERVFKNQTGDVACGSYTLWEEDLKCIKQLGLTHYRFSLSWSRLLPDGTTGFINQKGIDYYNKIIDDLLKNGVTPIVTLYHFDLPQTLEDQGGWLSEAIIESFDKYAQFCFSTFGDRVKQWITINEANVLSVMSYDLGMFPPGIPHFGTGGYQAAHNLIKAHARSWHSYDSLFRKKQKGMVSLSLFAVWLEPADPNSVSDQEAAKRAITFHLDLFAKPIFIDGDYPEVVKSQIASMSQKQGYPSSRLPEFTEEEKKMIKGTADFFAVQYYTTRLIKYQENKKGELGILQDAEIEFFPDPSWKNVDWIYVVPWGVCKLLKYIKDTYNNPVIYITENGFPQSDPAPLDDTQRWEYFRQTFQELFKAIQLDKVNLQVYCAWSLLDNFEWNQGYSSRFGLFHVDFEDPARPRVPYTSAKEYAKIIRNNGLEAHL
# Method: as §1
# α-Fucosidase = target: T4, α-Fucosidase (Homo sapiens, UniProt P04066); assay: inhibition of human liver α-fucosidase; settings: for inhibition of α-fucosidase (in words): 1 mM; for inhibition at 1000 µM: 1 mM inhibitor, read-out: % Inhibition of Glycosidase Activity, α-Fucosidase
# T4 construct: Human liver glycosidases were assayed; from tissue; host or cells: human liver
# T4 sequence (P04066 32-466): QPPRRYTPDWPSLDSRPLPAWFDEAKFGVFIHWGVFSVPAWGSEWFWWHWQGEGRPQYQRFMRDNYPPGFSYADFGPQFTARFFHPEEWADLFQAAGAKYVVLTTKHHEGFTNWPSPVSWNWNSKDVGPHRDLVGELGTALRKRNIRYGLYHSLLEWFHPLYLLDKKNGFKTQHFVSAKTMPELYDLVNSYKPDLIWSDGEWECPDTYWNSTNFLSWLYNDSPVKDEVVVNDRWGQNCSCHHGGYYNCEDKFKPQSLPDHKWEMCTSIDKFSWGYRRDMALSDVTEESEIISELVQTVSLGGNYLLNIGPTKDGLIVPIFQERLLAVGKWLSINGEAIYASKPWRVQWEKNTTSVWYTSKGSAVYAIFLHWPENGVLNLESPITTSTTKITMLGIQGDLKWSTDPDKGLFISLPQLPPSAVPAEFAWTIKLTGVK
# Method: as §1
Structure (SMILES),inhibition at 1000 µM (Neutral α-Mannosidase),"% Inhibition of Glycosidase Activity, β-Glucosidase (β-Glucosidase)",inhibition at 1000 µM (β-Glucuronidase; 1 mM inhibitor),inhibition at 1000 µM (β-Xylosidase),inhibition of α-fucosidase (in words) (α-Fucosidase),inhibition at 1000 µM (β-Glucuronidase),inhibition at 1000 µM (α-Fucosidase),inhibition of α-fucosidase (in words) (α-Fucosidase; listed as α-(aminomethyl)-1-deoxy-mannofuranose (5)),inhibition of neutral α-mannosidase (in words) (Neutral α-Mannosidase; compared with DIM (3))
OC[C@@H](O)[C@H]1NC[C@@H](O)[C@H]1O [DIM (3)],89%,16%,9%,45%,–,–,–,–,–
"OC[C@H]1NC[C@@H](O)[C@@H](O)[C@@H]1O [DMJ (1), deoxymannojirimycin]",30%,0%,–,3%,potent inhibition of α-fucosidase,53%,–,–,–
"NC[C@H]1O[C@H]([C@H](O)CO)[C@H](O)[C@@H]1O [Manhepamine (5), 1-amino-2,5-anhydro-1-deoxy-D-glycero-D-talo-heptitol]",2%,14%,7%,6%,moderate inhibition of α-fucosidase,–,77%,moderate inhibitor of α-fucosidase,–
"OC[C@@H](O)[C@H]1N[C@H](CO)[C@@H](O)[C@H]1O [αHomoDIM (4), 2,5-dideoxy-2,5-imino-D-glycero-D-talo-heptitol]",76%,23%,0%,21%,much less potent,–,27%,–,decreases the inhibition of the lysosomal and neutral enzymes
OC[C@H]1N[C@H](CO)[C@@H](O)C(O)[C@@H]1O (some centres unmarked) [αHomoDMJ (2)],33%,0%,0%,0%,decrease markedly the potent inhibition of α-fucosidase,–,29%,–,–

# — patent US5384417A, “Heptitols” (priority 1994, dated 1995)
